# Reference: PubChem BioAssay (NCI)
#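 Each compound was tested at five concentrations against cells in 96-well plates for 48 hours. At the GI50, growth is halved. TGI is the concentration that stops growth completely.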
# Assays:
# Test in all cases: growth of human tumour cells (NCI), 48 h
# 786-0 renal = system: 786-0 renal
# A498 renal = system: A498 renal
# A549 NSCLC = system: A549 NSCLC
# ACHN renal = system: ACHN renal
# BT-549 breast = system: BT-549 breast
# CAKI-1 renal = system: CAKI-1 renal
# CCRF-CEM leukemia = system: CCRF-CEM leukemia
# COLO 205 colon = system: COLO 205 colon
# DU-145 prostate = system: DU-145 prostate
# EKVX NSCLC = system: EKVX NSCLC
# HCC-2998 colon = system: HCC-2998 colon
# HCT-116 colon = system: HCT-116 colon
# HCT-15 colon = system: HCT-15 colon
# HL-60(TB) leukemia = system: HL-60(TB) leukemia
# HOP-62 NSCLC = system: HOP-62 NSCLC
# HOP-92 NSCLC = system: HOP-92 NSCLC
# HS 578T breast = system: HS 578T breast
# HT29 colon = system: HT29 colon
# IGROV1 ovarian = system: IGROV1 ovarian
# K-562 leukemia = system: K-562 leukemia
# KM12 colon = system: KM12 colon
# LOX IMVI melanoma = system: LOX IMVI melanoma
# M14 melanoma = system: M14 melanoma
# MALME-3M melanoma = system: MALME-3M melanoma
# MDA-MB-231 breast = system: MDA-MB-231 breast
# MDA-MB-435 = system: MDA-MB-435
# MOLT-4 leukemia = system: MOLT-4 leukemia
# NCI-H226 lung = system: NCI-H226 lung
# NCI-H23 lung = system: NCI-H23 lung
# NCI-H460 lung = system: NCI-H460 lung
# NCI-H522 lung = system: NCI-H522 lung
# NCI/ADR-RES ovarian = system: NCI/ADR-RES ovarian
# OVCAR-3 ovarian = system: OVCAR-3 ovarian
# OVCAR-4 ovarian = system: OVCAR-4 ovarian
# OVCAR-5 ovarian = system: OVCAR-5 ovarian
# OVCAR-8 ovarian = system: OVCAR-8 ovarian
# PC-3 prostate = system: PC-3 prostate
# RPMI-8226 leukemia = system: RPMI-8226 leukemia
# RXF 393 renal = system: RXF 393 renal
# SF-268 CNS = system: SF-268 CNS
# SF-295 CNS = system: SF-295 CNS
# SF-539 CNS = system: SF-539 CNS
# SK-MEL-2 melanoma = system: SK-MEL-2 melanoma
# SK-MEL-28 melanoma = system: SK-MEL-28 melanoma
# SK-MEL-5 melanoma = system: SK-MEL-5 melanoma
# SK-OV-3 ovarian = system: SK-OV-3 ovarian
# SN12C renal = system: SN12C renal
# SNB-19 CNS = system: SNB-19 CNS
# SNB-75 CNS = system: SNB-75 CNS
# SR leukemia = system: SR leukemia
# SW-620 colon = system: SW-620 colon
# TK-10 renal = system: TK-10 renal
# U251 CNS = system: U251 CNS
# UACC-257 melanoma = system: UACC-257 melanoma
# UACC-62 melanoma = system: UACC-62 melanoma
# UO-31 renal = system: UO-31 renal
structure (smiles),measurement,setting,value
O=C1Nc2cc(-c3ccc(NS(=O)(=O)c4ccc(F)c(Cl)c4)cc3)ccc2/C1=C/c1ccc[nH]1,GI50,786-0 renal,5.54 µM
same,TGI,786-0 renal,27 µM
same,GI50,A498 renal,1.93 µM
same,TGI,A498 renal,15.5 µM
same,GI50,A549 NSCLC,2.35 µM
same,TGI,A549 NSCLC,16.8 µM
same,GI50,ACHN renal,3.52 µM
same,TGI,ACHN renal,14.6 µM
same,GI50,BT-549 breast,4 µM
same,TGI,BT-549 breast,26.3 µM
same,GI50,CAKI-1 renal,4.63 µM
same,TGI,CAKI-1 renal,18.6 µM
same,GI50,CCRF-CEM leukemia,3.28 µM
same,TGI,CCRF-CEM leukemia,18.9 µM
same,GI50,COLO 205 colon,5.07 µM
same,TGI,COLO 205 colon,18.9 µM
same,GI50,DU-145 prostate,3.74 µM
same,TGI,DU-145 prostate,15.2 µM
same,GI50,EKVX NSCLC,0.0918 µM
same,TGI,EKVX NSCLC,15.9 µM
same,GI50,HCC-2998 colon,3.23 µM
same,TGI,HCC-2998 colon,20.4 µM
same,GI50,HCT-116 colon,3.57 µM
same,TGI,HCT-116 colon,33.3 µM
same,GI50,HCT-15 colon,3.46 µM
same,TGI,HCT-15 colon,17.6 µM
same,GI50,HL-60(TB) leukemia,3.34 µM
same,TGI,HL-60(TB) leukemia,30.4 µM
same,GI50,HOP-62 NSCLC,10.3 µM
same,TGI,HOP-62 NSCLC,26.3 µM
same,GI50,HOP-92 NSCLC,4.68 µM
same,TGI,HOP-92 NSCLC,20.3 µM
same,GI50,HS 578T breast,2.96 µM
same,TGI,HS 578T breast,19.2 µM
same,GI50,HT29 colon,3.31 µM
same,TGI,HT29 colon,17.8 µM
same,GI50,IGROV1 ovarian,11.4 µM
same,TGI,IGROV1 ovarian,39.9 µM
same,GI50,K-562 leukemia,3.79 µM
same,TGI,K-562 leukemia,> 100 µM
same,GI50,KM12 colon,2.13 µM
same,TGI,KM12 colon,7.6 µM
same,GI50,LOX IMVI melanoma,3.78 µM
same,TGI,LOX IMVI melanoma,16.2 µM
same,GI50,M14 melanoma,5.58 µM
same,TGI,M14 melanoma,27.2 µM
same,GI50,MALME-3M melanoma,10.5 µM
same,TGI,MALME-3M melanoma,23.2 µM
same,GI50,MDA-MB-231 breast,4.86 µM
same,TGI,MDA-MB-231 breast,21.3 µM
same,GI50,MDA-MB-435,6.52 µM
same,TGI,MDA-MB-435,25.8 µM
same,GI50,MOLT-4 leukemia,2.33 µM
same,TGI,MOLT-4 leukemia,16.1 µM
same,GI50,NCI-H226 lung,3.86 µM
same,TGI,NCI-H226 lung,26.1 µM
same,GI50,NCI-H23 lung,0.533 µM
same,TGI,NCI-H23 lung,8.49 µM
same,GI50,NCI-H460 lung,0.393 µM
same,TGI,NCI-H460 lung,1.98 µM
same,GI50,NCI-H522 lung,4.19 µM
same,TGI,NCI-H522 lung,22.4 µM
same,GI50,NCI/ADR-RES ovarian,7.98 µM
same,TGI,NCI/ADR-RES ovarian,29.9 µM
same,GI50,OVCAR-3 ovarian,2.86 µM
same,TGI,OVCAR-3 ovarian,17.1 µM
same,GI50,OVCAR-4 ovarian,2 µM
same,TGI,OVCAR-4 ovarian,18.8 µM
same,GI50,OVCAR-5 ovarian,3.53 µM
same,TGI,OVCAR-5 ovarian,19.4 µM
same,GI50,OVCAR-8 ovarian,12.3 µM
same,TGI,OVCAR-8 ovarian,32.1 µM
same,GI50,PC-3 prostate,3.11 µM
same,TGI,PC-3 prostate,18 µM
same,GI50,RPMI-8226 leukemia,2.6 µM
same,TGI,RPMI-8226 leukemia,21.9 µM
same,GI50,RXF 393 renal,3.12 µM
same,TGI,RXF 393 renal,16.6 µM
same,GI50,SF-268 CNS,8.27 µM
same,TGI,SF-268 CNS,29.2 µM
same,GI50,SF-295 CNS,4.68 µM
same,TGI,SF-295 CNS,23.2 µM
same,GI50,SF-539 CNS,2.67 µM
same,TGI,SF-539 CNS,14.9 µM
same,GI50,SK-MEL-2 melanoma,18.2 µM
same,TGI,SK-MEL-2 melanoma,> 100 µM
same,GI50,SK-MEL-28 melanoma,6.91 µM
same,TGI,SK-MEL-28 melanoma,29.2 µM
same,GI50,SK-MEL-5 melanoma,11.3 µM
same,TGI,SK-MEL-5 melanoma,35.3 µM
same,GI50,SK-OV-3 ovarian,4.07 µM
same,TGI,SK-OV-3 ovarian,29.7 µM
same,GI50,SN12C renal,11.8 µM
same,TGI,SN12C renal,31 µM
same,GI50,SNB-19 CNS,13.7 µM
same,TGI,SNB-19 CNS,35.5 µM
same,GI50,SNB-75 CNS,0.95 µM
same,TGI,SNB-75 CNS,14.4 µM
same,GI50,SR leukemia,2.2 µM
same,TGI,SR leukemia,17.6 µM
same,GI50,SW-620 colon,3.46 µM
same,TGI,SW-620 colon,17 µM
same,GI50,TK-10 renal,5.8 µM
same,TGI,TK-10 renal,25.8 µM
same,GI50,U251 CNS,11.5 µM
same,TGI,U251 CNS,26.1 µM
same,GI50,UACC-257 melanoma,3.96 µM
same,TGI,UACC-257 melanoma,21.3 µM
same,GI50,UACC-62 melanoma,4.9 µM
same,TGI,UACC-62 melanoma,27.9 µM
same,GI50,UO-31 renal,3.22 µM
same,TGI,UO-31 renal,21 µM
